Source: paper PMC8580050, “Improvement of the antimicrobial potency, pharmacokinetic and pharmacodynamic properties of albicidin by incorporation of nitrogen atoms” (Chemical Science, 2021)
In brackets after ≈: the same amount, converted by molar mass. Where two headings read alike, the source gives them in different places.

What was measured:
[1] = system: K. pneumoniae (ciprofloxacin resistant clinical isolate); test: microbe, parasite or virus in culture; assay type: cell-based; conditions: Klebsiella pneumoniae
Method: (§1) 1.1.1 In vitro experiments
(§2) Determination of Minimal inhibitory concentrations (MIC)
(§3) Approved Standard M07-A9.1
(§4) CFU mL-1. […] Albicidin and […]
(§5) and serially diluted in DMSO (100%). […]
(§6) in 0.1 N HCL, respectively.
(§7) One row of each well plate served as a […]
(§8) sterility control (only MHB II-media). […]
(§9) adding 5 µL DMSO to several wells. […]
(§10) for growth inhibition by naked eye.
(§11) Microorganisms and Cell Cultures (DSMZ): […]
(§12) Dr. Werner (Robert-Koch-Institut, Wernigerode, Germany): […]

[2] = system: Salmonella Kentucky (ciprofloxacin resistant clinical isolate); test: microbe, parasite or virus in culture; assay type: cell-based
Method: as §1, §2, §3, §4, §5, §6, §7, §8, §9, §10, §11, §12

E. coli BW25113 = test: MIC determination (broth microdilution); assay type: cell-based; conditions: Escherichia coli
Method: as §1, §2, §3, §4, §5, §6, §7, §8, §9, §10, §11

B. subtilis DSM 10 = test: MIC determination (broth microdilution); assay type: cell-based; conditions: Bacillus subtilis, DSM10
Method: as §1, §2, §3, §4, §5, §6, §7, §8, §9, §10, §11

[3] = system: Salmonella Kentucky (ciprofloxacin susceptible clinical isolate); test: MIC, extended panel; assay type: cell-based; conditions: Salmonella enterica
Method: as §1, §2, §3, §4, §5, §6, §7, §8, §9, §10, §11, §12

[4] = system: E. coli (ciprofloxacin susceptible clinical isolate); test: MIC, extended panel; assay type: cell-based; conditions: Escherichia coli
Method: as §1, §2, §3, §4, §5, §6, §7, §8, §9, §10, §11, §12

[5] = system: E. coli DSM 1116 + 50% Human Serum; test: MIC determination in presence of 50% human serum; assay type: cell-based; conditions: Escherichia coli, DSM1116
Source text: This investigation was completed by assessment of the antibacterial activity in presence of human plasma (50%) (Table 1), since high plasma protein binding can severely impair antibacterial activity and thus efficacy.
as §1, §2, §3, §4, §5, §6, §7, §8, §9, §10, §11

[6] = system: E. coli knockout mutants from the KEIO collection (TolC, tsx); test: MIC on E. coli knockout mutants (KEIO collection); assay type: cell-based; conditions: for MIC: Escherichia coli
[7] = system: S. aureus (ciprofloxacin resistant clinical isolate); test: microbe, parasite or virus in culture; assay type: cell-based, Staphylococcus aureus
Method: as §1, §2, §3, §4, §5, §6, §7, §8, §9, §10, §11, §12
(§13) for the following 11 pathogenic isolates: […]

[8] = system: S. aureus (ciprofloxacin susceptible clinical isolate); test: MIC, extended panel; assay type: cell-based; conditions: Staphylococcus aureus
Method: as §1, §2, §3, §4, §5, §6, §7, §8, §9, §10, §11, §12, §13

[9] = system: A. baumannii (ciprofloxacin resistant isolate); test: microbe, parasite or virus in culture; assay type: cell-based, Acinetobacter baumannii
Method: as §1, §2, §3, §4, §5, §6, §7, §8, §9, §10, §11, §12, §13

E. coli DNA gyrase = biological target: T1, E. coli DNA gyrase (Escherichia coli, UniProt P0AES4+P0AES6); test: E. coli gyrase supercoiling inhibition assay; assay type: biochemical; parameters: key: ↑: for stronger inhibition; ≈: for equal inhibition; ↓: for diminished inhibition compared to albicidin 1; conditions: constant concentration of 45 nM, compared to albicidin 1
T1 construct: purchased inspiralis Limited, Norwich, UK
T1 sequence (P0AES4 whole entry, one chain of several): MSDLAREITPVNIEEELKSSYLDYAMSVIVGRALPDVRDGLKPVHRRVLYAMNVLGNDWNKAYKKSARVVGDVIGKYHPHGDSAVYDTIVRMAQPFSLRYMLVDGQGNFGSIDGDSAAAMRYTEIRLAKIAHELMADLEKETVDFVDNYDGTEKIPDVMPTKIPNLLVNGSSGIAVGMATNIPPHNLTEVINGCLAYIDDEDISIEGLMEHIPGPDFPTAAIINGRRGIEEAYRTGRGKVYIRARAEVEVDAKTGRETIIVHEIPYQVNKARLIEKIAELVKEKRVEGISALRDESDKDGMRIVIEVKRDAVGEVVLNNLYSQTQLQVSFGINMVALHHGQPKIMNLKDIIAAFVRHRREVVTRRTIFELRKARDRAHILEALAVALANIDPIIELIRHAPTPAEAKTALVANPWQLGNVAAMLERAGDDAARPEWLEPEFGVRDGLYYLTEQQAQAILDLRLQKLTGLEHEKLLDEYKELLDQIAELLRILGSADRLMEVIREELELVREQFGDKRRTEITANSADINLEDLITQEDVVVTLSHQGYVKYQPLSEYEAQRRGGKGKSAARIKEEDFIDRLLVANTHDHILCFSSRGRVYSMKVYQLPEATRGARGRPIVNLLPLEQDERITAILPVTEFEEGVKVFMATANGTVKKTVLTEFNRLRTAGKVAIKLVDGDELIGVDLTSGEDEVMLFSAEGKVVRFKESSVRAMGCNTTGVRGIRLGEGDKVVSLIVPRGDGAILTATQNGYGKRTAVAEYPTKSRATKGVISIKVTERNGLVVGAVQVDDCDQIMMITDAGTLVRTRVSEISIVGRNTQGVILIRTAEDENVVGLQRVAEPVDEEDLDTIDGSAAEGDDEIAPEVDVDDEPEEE
Method: Escherichia coli Gyrase Supercoiling Inhibition Assay
loaded on an agarose gel.
2-15. […] Addition of DNA
All derivatives were tested at a concentration of […]

S. Typhimurium TA100 = test: MIC determination (broth microdilution); assay type: cell-based, Salmonella typhimurium; conditions: Salmonella enterica; S. Typhimurium TA100; read-out: MIC
Method: as §1, §2, §3, §4, §5, §6, §7, §8, §9, §10, §11

M. phlei DSM 750 = test: MIC determination (broth microdilution); assay type: cell-based, Mycobacterium phlei; conditions: Mycolicibacterium phlei, DSM750
Method: as §1, §2, §3, §4, §5, §6, §7, §8, §9, §10

[10] = system: E. faecium (ciprofloxacin resistant clinical isolate); test: microbe, parasite or virus in culture; assay type: cell-based; conditions: Enterococcus faecium
Method: as §1, §2, §3, §4, §5, §6, §7, §8, §9, §10, §11, §12, §13

[11] = system: P. aeruginosa (ciprofloxacin resistant clinical isolate); test: microbe, parasite or virus in culture; assay type: cell-based; conditions: Pseudomonas aeruginosa
Method: as §1, §2, §3, §4, §5, §6, §7, §8, §9, §10, §11, §12, §13

Tolerability assessment = assay type: in vivo, CD-1 mice; conditions: intravenous injection, 50 mg kg^−1, mice
Method: Application volume of 5 ml kg-1 was used. Samples of K-EDTA blood were collected from each mouse […]
An individual blood cell count was performed for each sample. […]
performed with help of the grimace scale to monitor any changes in facial expression. […]
were sacrificed, and a macroscopic necropsy was performed to search for damaged organs. Data of blood cell count is given in Table S7 and reference values for measured blood cell parameters are given

[12] = system: fluoroquinolone-resistant (FQR) E. coli isolate; test: Murine septicaemia infection model; assay type: in vivo, CD-1 mice
Method: From a panel of clinical ESKAPE isolates one fluoroquinolone (FQR)-resistant E. coli strain was selected for the preparation of the infection model (Table S3 ^†). […] Bacterial payload (CFU) was measured from spleens and kidneys and compared to untreated control animals.
Pharmacokinetic calculations
1.1.3 Murine septicemia infection model
For in vivo infections study female CD-1 mice (RjOrl:SWISS, 6 weeks old) were purchased from Janvier Labs (Le Genest Saint Isle, France). The animals were allowed to acclimatize for at least seven days before the start of experiments. Group-Housing was realized in a pathogen-free, temperature- […]
and water ad libitum throughout the study. All experimental procedures were approved by and conducted in accordance to the institutional guidelines. […]
septicemia infection model. Following overnight incubation in Brain Heart infusion at 37°C, the strain was spin down at 2.500 rpm for 10 min. Immediately before use, bacteria pellet was resuspended in […]
For infection procedure, mice were briefly anesthetized with continuous inhalation of isoflurane.
100 µl of bacterial suspension were intravenously administered. At least nine animals were used for each of the following therapeutic groups:
- Untreated but infected animals: control group (PBS)
- Drug candidate, dose 1 group (6 mg kg-1);
- Drug candidate, dose 2 group (17 mg kg-1). […]
respectively. Animals were monitored for clinical signs throughout the whole study using a 4-point body condition score analyzing weight loss, respiratory distress, hampered mobility and hunched posture. Animals were euthanized after 24 hours of infection. Spleen and kidneys from each animal were removed, weighed, and homogenized in 2 mL of PBS and used for quantitative cultures on agar

[13] = system: P. aeruginosa (ciprofloxacin susceptible clinical isolate); test: MIC, extended panel; assay type: cell-based, Pseudomonas aeruginosa
Method: as §1, §2, §3, §4, §5, §6, §7, §8, §9, §10, §11, §12, §13

[14] = Pharmacokinetic study, i.v.
[15] = system: E. faecium (ciprofloxacin susceptible clinical isolate); test: microbe, parasite or virus in culture; conditions: Enterococcus faecium
in vitro = conditions: plasma, pH 7.4
Method: Determination of plasma stability
Human and murine plasma aliquots (Sigma-Aldrich, Taufkirchen, Germany) were thawed and subsequently centrifuged at 3000 rpm for 10 min at 4°C. Resulting supernatant was diluted in the same volume of phosphate buffer (pH 7.4) to obtain a plasma concentration of 50% (v/v). Stock solutions of […]
concentration of 20 µM (5% DMSO). Following incubation at 37°C ice-cold methanol containing 30% […]
were centrifuged at 4000 rpm for 20 min at 4°C and 100 µL of supernatant were directly transferred to a fresh MS-vial. Samples were analyzed by LC/MS-MS experiments. Quantification of remaining compounds was performed by an external calibration curve of standard solutions in the range of […]

E. coli DSM 1116 = test: MIC determination (broth microdilution); assay type: cell-based, Escherichia coli
Method: as §1, §2, §3, §4, §5, §6, §7, §8, §9, §10, §11

[16] = system: E. coli (ciprofloxacin resistant clinical isolate); test: microbe, parasite or virus in culture; assay type: cell-based, Escherichia coli
Method: as §1, §2, §3, §4, §5, §6, §7, §8, §9, §10, §11, §12

M. luteus DSM1790 = test: MIC determination (broth microdilution); assay type: cell-based, Micrococcus luteus; conditions: Micrococcus luteus, DSM1790
Method: as §1, §2, §3, §4, §5, §6, §7, §8, §9, §10, §11

[17] = system: K. pneumoniae (ciprofloxacin susceptible clinical isolate); test: MIC, extended panel; assay type: cell-based, Klebsiella pneumoniae
Method: as §1, §2, §3, §4, §5, §6, §7, §8, §9, §10, §11, §12

[18] = 50 mg kg-1 i.v., 2-compartment analysis

Q: What does the source list for `COc1c(NC(=O)c2ccc(NC(=O)c3ccc(NC(=O)[C@H](Cc4c[nH]nn4)NC(=O)c4ccc(NC(=O)/C(C)=C/c5ccc(O)cc5)cc4)cn3)c(OC)c2O)ccc(C(=O)O)c1O` [Compound 7]?
A: MIC [1]: 64 µg/mL (≈ 72.2 µM); activity, times higher compared to 2 ([2]; CIP-resistant Salmonella Kentucky): 8 times; MIC ([2]; Salmonella enterica): 0.016 µg/mL (≈ 0.0181 µM); MIC (E. coli BW25113): ≤ 0.016 µg/mL; MIC (B. subtilis DSM 10): 0.063 µg/mL (≈ 0.0711 µM); MIC [3]: 0.016 µg/mL (≈ 0.0181 µM); MIC [4]: 0.016 µg/mL (≈ 0.0181 µM); MIC [5]: 0.5 µg/mL; MIC ([6]; read-out: antimicrobial activity (MIC), TolC (efflux transporter) knockout mutation): ≤ 0.016 µg/mL; MIC ([6]; read-out: antimicrobial activity (MIC), before TolC knockout (parent strain)): 0.063 µg/mL (≈ 0.0711 µM); increase of efficacy, factor ([6]; TolC knockout mutation): 4; decrease in activity ([6]; knockout mutation of the tsx gene): 10 fold; activity, times higher compared to 2 ([7]; CIP-resistant S. aureus): 8 times; MIC ([7]; Staphylococcus aureus): 0.063 µg/mL (≈ 0.0711 µM); MIC [8]: 0.016 µg/mL (≈ 0.0181 µM); MIC ([9]; Acinetobacter baumannii): 0.016 µg/mL (≈ 0.0181 µM); activity, times higher compared to 2 ([9]; CIP-resistant A. baumannii): 125 times; E. coli gyrase inhibition (E. coli DNA gyrase): ↑; MIC (S. Typhimurium TA100): ≤ 0.016 µg/mL; MIC (M. phlei DSM 750): 0.25 µg/mL (≈ 0.282 µM); MIC [10]: 32 µg/mL (≈ 36.1 µM); MIC [11]: 2 µg/mL (≈ 2.26 µM); adverse effects or histopathological observations (tolerability study) (Tolerability assessment): did not show any adverse effects or histopathological observations; CFU reduction in kidney ([12]; 17 mg kg^−1 applied twice): > 2 log units; CFU reduction in spleen ([12]; 17 mg kg^−1 applied twice): more than 3 log units; survival ([12]; 17 mg kg^−1 applied twice, lethal dose of FQR clinical isolate E. coli): all mice survived; survival after 24 h ([12]; 6 and 17 mg kg^−1 i.v. twice, lethal dose of FQR resistant E. coli): survived; reduction of bacterial counts in kidneys ([12]; both tested doses (6 and 17 mg kg^−1 i.v. twice), versus untreated control): > 3 log 10 CFU g^−1; activity, times higher than 2 ([13]; CIP sensitive P. aeruginosa): 4 times; MIC ([13]; Pseudomonas aeruginosa): 1 µg/mL (≈ 1.13 µM); T1/2 kel, mean [14, 18]: 1.4 h; T1/2 λz, mean [14, 18]: 8.3 h; plasma level as multiple of MIC for E. coli ([14]; 50 mg kg^−1 i.v., after 24 h): higher than 5 times MIC; MIC [15]: 0.25 µg/mL (≈ 0.282 µM); half-life at 20 µM (in vitro; human): > 4 h; half-life at 20 µM (in vitro; mouse): 1.58 h; MIC for E. coli (E. coli DSM 1116; E. coli, strain not given): 0.016 µg/mL; MIC (E. coli DSM 1116; Escherichia coli, DSM1116): ≤ 0.016 µg/mL; activity, times higher compared to 2 ([16]; CIP-resistant E. coli): 4 times; MIC ([16]; Escherichia coli): 0.016 µg/mL (≈ 0.0181 µM); MIC (M. luteus DSM1790): 0.031 µg/mL (≈ 0.035 µM); activity, times higher than 2 ([17]; CIP sensitive K. pneumonia): 8 times; MIC ([17]; Klebsiella pneumoniae): 8 µg/mL (≈ 9.03 µM)
